According to patent US20260159520A1, “HETEROBIFUNCTIONAL COMPOUNDS AND METHODS OF TREATING DISEASE” (Halda Therapeutics OpCo, Inc., priority 2022, published 2026):

What was measured:
[1] = system: T-Rex 293 cell line SC3 cells having increased expression of androgen receptor protein; test: Cellular growth inhibition, T-Rex 293 SC3 cells with doxycycline (increased androgen receptor expression); type: cell-based; conditions: with 10 ng/mL doxycycline (increased androgen receptor), 72 hours, CellTiter-Glo 2.0
Summary of the method: (§1)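 Growth inhibition is measured in an inducible AR-expressing T-Rex 293 clone, SC3, cultured with or without 10 ng/mL doxycycline in hormone-depleted medium. Test compounds are applied for 72 hours. GI50 values derive from CellTiter-Glo 2.0 signal fitted by four-parameter regression.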

[2] = molecular target: T1, androgen receptor (Homo sapiens, UniProt P10275); test: Binding affinity to androgen receptor ([3H]methyltrienolone radioligand, cell cytosol); conditions: Table 6
T1 construct: endogenous in cells; host or cells: unnamed cells (cytosol fraction)
T1 sequence (P10275 1-920): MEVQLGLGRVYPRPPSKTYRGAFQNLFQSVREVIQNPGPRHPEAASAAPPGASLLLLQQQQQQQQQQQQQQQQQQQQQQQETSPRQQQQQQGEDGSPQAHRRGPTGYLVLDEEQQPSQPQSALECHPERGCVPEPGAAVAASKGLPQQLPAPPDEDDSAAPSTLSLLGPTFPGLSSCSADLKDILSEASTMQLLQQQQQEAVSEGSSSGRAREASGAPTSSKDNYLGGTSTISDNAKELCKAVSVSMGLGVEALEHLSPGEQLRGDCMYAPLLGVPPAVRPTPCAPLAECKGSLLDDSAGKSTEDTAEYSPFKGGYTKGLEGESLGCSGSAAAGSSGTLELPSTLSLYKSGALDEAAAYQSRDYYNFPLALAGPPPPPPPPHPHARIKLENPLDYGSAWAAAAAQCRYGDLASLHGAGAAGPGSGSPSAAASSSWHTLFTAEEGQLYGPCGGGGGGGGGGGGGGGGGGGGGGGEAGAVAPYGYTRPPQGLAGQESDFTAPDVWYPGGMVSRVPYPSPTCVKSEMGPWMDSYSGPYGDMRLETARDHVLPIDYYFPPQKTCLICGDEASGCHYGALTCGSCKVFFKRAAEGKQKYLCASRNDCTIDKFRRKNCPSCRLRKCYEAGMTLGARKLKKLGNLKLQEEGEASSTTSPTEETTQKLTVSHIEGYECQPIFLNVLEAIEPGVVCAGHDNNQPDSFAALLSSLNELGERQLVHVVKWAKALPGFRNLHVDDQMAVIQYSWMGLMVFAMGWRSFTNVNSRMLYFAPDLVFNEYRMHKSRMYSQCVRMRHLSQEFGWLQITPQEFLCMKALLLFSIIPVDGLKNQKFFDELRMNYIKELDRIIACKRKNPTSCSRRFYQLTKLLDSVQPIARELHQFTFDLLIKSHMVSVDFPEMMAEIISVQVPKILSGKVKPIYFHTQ
Procedure: Fractions of cell cytosol ([…]) were incubated for 24 hr at 4° C. with 1 nM [^3H]methyltrienolone in the absence or presence of the test compound in a buffer containing 25 mM Hepes-Tris (pH 7.4), 1 mM EDTA, 10 mM Na2MoO4, 2 mM DTT, 5 μM triamcinolone acetonide, and 10% glycerol. Nonspecific binding was determined in the presence of 1 μM testosterone. Following incubation, the samples were filtered rapidly under vacuum through glass fiber filters (GF/B, Packard) presoaked with 0.3% PEI and rinsed several times with ice-cold 50 mM Tris-HCl using a 96-sample cell harvester (Unifilter, Packard). The filters were dried then counted for radioactivity in a scintillation counter (Topcount, Packard) using a scintillation cocktail (Microscint 0, Packard). The results are expressed as a percent inhibition of the control radioligand specific binding. The standard reference compound is testosterone, which is tested in each experiment at several concentrations to obtain a competition curve from which its IC50 is calculated.

[3] = system: T-Rex 293 cell line SC3 cells lacking increased expression of androgen receptor protein; test: Cellular growth inhibition, T-Rex 293 SC3 cells without doxycycline; type: cell-based; conditions: not exposed to doxycycline, 72 hours, CellTiter-Glo 2.0
Summary of the method: as §1

[4] = system: VCaP cells; test: Cellular growth inhibition assay for VCaP cells; type: cell-based; conditions: Homo sapiens, 72 hours, CellTiter-Glo 2.0
[5] = molecular target: T2, CDK9 (Homo sapiens, UniProt P50750); test: KdELECT binding assay, CDK9; conditions: CDK9, Table 7
T2 construct: made in house; host or cells: E. coli BL21-derived host (T7 phage) or HEK-293 ('BEK-293' [sic])
Procedure: Compounds were tested using a KdELECT. Kinase-tagged T7 phage strains were prepared in an E. coli host derived from the BL21 strain. E. coli were grown to log-phase and infected with T7 phage and incubated with shaking at 32° C. until lysis. The lysates were centrifuged and filtered to remove cell debris. The remaining kinases were produced in BEK-293 cells and subsequently tagged with DNA for qPCR detection. Streptavidin-coated magnetic beads were treated with biotinylated small molecule ligands for 30 minutes at room temperature to generate affinity resins for kinase assays. The liganded beads were blocked with excess biotin and washed with blocking buffer (SeaBlock (Pierce), 1% BSA, 0.05% Tween 20, 1 mM DTT) to remove unbound ligand and to reduce non-specific binding. Binding reactions were assembled by combining kinases, liganded affinity beads, and test compounds in 1× binding buffer (20% SeaBlock, 0.17×PBS, 0.05% Tween 20, 6 mM DTT). Test compounds were prepared as 111× stocks in 100% DMSO. Kd values were determined using an 11-point 3-fold compound dilution series with three DMSO control points. All compounds for Kd measurements are distributed by acoustic transfer (non-contact dispensing) in 100% DMSO. The compounds were then diluted directly into the assays such that the final concentration of DMSO was 0.9%. All reactions performed in polypropylene 384-well plate. Each was a final volume of 0.02 mL. The assay plates were incubated at room temperature with shaking for 1 hour and the affinity beads were washed with wash buffer (lx PBS, 0.05% Tween 20). The beads were then re-suspended in elution buffer (lx PBS, 0.05% Tween 20, 0.5 μM nonbiotinylated affinity ligand) and incubated at room temperature with shaking for 30 minutes. The kinase concentration in the eluates was measured by qPCR.

[6] = system: T47D cells; test: Cellular growth inhibition assay for T47D cells; type: cell-based; conditions: Homo sapiens, 72 hours, CellTiter-Glo 2.0
Summary of the method: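 Growth inhibition as GI50, fitted with four parameters to CellTiter-Glo luminescence after 72 h of compound exposure (0.5% DMSO). Cells were T47D, grown in insulin-supplemented (0.2 units/mL) DMEM with 10% FBS and treated one day post-seeding.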

T2 sequence (P50750 whole entry): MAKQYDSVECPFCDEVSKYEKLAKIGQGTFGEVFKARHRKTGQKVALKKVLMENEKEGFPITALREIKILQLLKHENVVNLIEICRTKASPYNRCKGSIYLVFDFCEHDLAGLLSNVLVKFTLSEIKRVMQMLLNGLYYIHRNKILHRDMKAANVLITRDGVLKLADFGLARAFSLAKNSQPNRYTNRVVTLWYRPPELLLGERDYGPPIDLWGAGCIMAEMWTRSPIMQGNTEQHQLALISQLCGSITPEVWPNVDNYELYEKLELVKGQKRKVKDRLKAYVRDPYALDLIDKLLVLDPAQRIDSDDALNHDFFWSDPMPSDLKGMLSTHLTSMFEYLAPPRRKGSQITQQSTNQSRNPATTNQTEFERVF

Row | SMILES | GI50 [1] | Kd [2] | GI50 [3] | GI50 [4] | Kd [5] | GI50 [6]
1 | CCc1cnn2c(NCc3ccc(OCCCN4CCN(CCCN(C)c5ncc(C(=O)N[C@H]6C(C)(C)[C@H](Oc7ccc(C#N)c(Cl)c7)C6(C)C)cn5)CC4)nc3)cc(N3CCCC[C@H]3CCO)nc12 [Compound I-6, N-((1r,3r)-3-(3-chloro-4-cyanophenoxy)-2,2,4,4-tetramethylcyclobutyl)-2-((3-(4-(3-((5-(((3-ethyl-5-((S)-2-(2-hydroxyethyl)piperidin-1-yl)pyrazolo[1,5-a]pyrimidin-7-yl)amino)methyl)pyridin-2-yl)oxy)propyl)piperazin-1-yl)propyl)(methyl)amino)pyrimidine-5-carboxamide] | < 100 nM | < 50 nM | 100 to 1000 nM |  |  | 
2 | CCc1cnn2c(NCc3ccc(OCCCN4CCN(CCCOC5CCN(c6ncc(C(=O)N[C@H]7C(C)(C)[C@H](Oc8ccc(C#N)c(Cl)c8)C7(C)C)cn6)CC5)CC4)nc3)cc(N3CCCC[C@H]3CCO)nc12 [Compound I-11] | < 100 nM | < 50 nM | 100 to 1000 nM | < 100 nM |  | 
3 | CCc1cnn2c(N(C)Cc3ccc(OCCOCCOCCOCCOCCN(C)c4ncc(C(=O)N[C@H]5C(C)(C)[C@H](Oc6ccc(C#N)c(Cl)c6)C5(C)C)cn4)nc3)cc(N3CCCC[C@H]3CCO)nc12 [Compound I-12] | > 3500 nM | < 50 nM | > 3500 nM |  | > 2500 nM | 
4 | CCc1cnn2c(N(C)Cc3ccc(OCCOCCOCCOC4CCN(c5ncc(C(=O)N[C@H]6C(C)(C)[C@H](Oc7ccc(C#N)c(Cl)c7)C6(C)C)cn5)CC4)nc3)cc(N3CCCC[C@H]3CCO)nc12 [Compound I-25] | > 3500 nM | < 50 nM | > 3500 nM |  | > 2500 nM | 
5 | CCc1cnn2c(NCc3ccc(OCCCCCCCCOC4CCN(c5ncc(C(=O)N[C@H]6C(C)(C)[C@H](Oc7ccc(C#N)c(Cl)c7)C6(C)C)cn5)CC4)nc3)cc(N3CCCC[C@H]3CCO)nc12 [Compound I-31] | > 3500 nM | > 2500 nM | > 3500 nM |  | > 2500 nM | 
6 | CCc1cnn2c(NCc3ccc(OCCCN4CCN(CC5CCN(c6cnc(C(=O)N[C@H]7C(C)(C)[C@H](Oc8ccc(C#N)c(Cl)c8)C7(C)C)nc6)CC5)CC4)nc3)cc(N3CCCC[C@@H]3CCO)nc12 [Compound I-58, N-((1r,3r)-3-(3-chloro-4-cyanophenoxy)-2,2,4,4-tetramethylcyclobutyl)-5-(4-((4-(3-((5-(((3-ethyl-5-((R)-2-(2-hydroxyethyl)piperidin-1-yl)pyrazolo[1,5-a]pyrimidin-7-yl)amino)methyl)pyridin-2-yl)oxy)propyl)piperazin-1-yl)methyl)piperidin-1-yl)pyrimidine-2-carboxamide] | 100 to 1000 nM | 500 to 2500 nM | < 100 nM | 100 to 1000 nM |  | 
7 | CC(C)n1cc(-c2ccnc3[nH]c(C4CCN(CCOCCOCCOCCOC5CCN(c6ncc(C(=O)N[C@H]7C(C)(C)[C@H](Oc8ccc(C#N)c(Cl)c8)C7(C)C)cn6)CC5)CC4)cc23)ccc1=O [Compound I-78] | < 100 nM |  | 100 to 1000 nM | < 100 nM | < 50 nM | 500 to 1500 nM
8 | CCc1cnn2c(NCc3ccc(OCCOCCN(C)C45CC(N(C)c6ncc(C(=O)N[C@H]7C(C)(C)[C@H](Oc8ccc(C#N)c(Cl)c8)C7(C)C)cn6)(C4)C5)nc3)cc(N3CCCC[C@H]3CCO)nc12 [Compound I-83] | < 100 nM | < 50 nM | < 100 nM | 100 to 1000 nM |  | 
9 | CC1(C)[C@H](NC(=O)c2cnc(N3CCC(OCCN4C/C=C/CCOc5cccc(c5)-c5ccnc(n5)Nc5cccc(c5)C4)CC3)nc2)C(C)(C)[C@H]1Oc1ccc(C#N)c(Cl)c1 [Compound I-87, N-[3-(3-chloro-4-cyano-phenoxy)-2,2,4,4-tetramethyl-cyclobutyl]-2-[4-[2-[(16E)-20-oxa-5,7,14,27-tetrazatetracyclo [19.3.1.12,6.18,12]heptacosa-1(24),2(27),3,5,8(26),9,11,16, 21(25),22-decaen-14-yl]ethoxy]-1-piperidyl]pyrimidine-5-carboxamide] | 100 to 1000 nM |  | > 3500 nM | > 3500 nM | 500 to 2500 nM | 500 to 1500 nM
10 | CC1(C)[C@H](NC(=O)c2cnc(N3CCC(OCCOCCOCCOCCN4C/C=C/CCOc5cccc(c5)-c5ccnc(n5)Nc5cccc(c5)C4)CC3)nc2)C(C)(C)[C@H]1Oc1ccc(C#N)c(Cl)c1 [Compound I-90] | 100 to 1000 nM |  | > 3500 nM | 100 to 1000 nM | 500 to 2500 nM | < 500 nM
